Test results taken from paper doi:10.1101/2024.08.13.607785v1 (biorxiv, 2024).

Tests used:
Parameters in all cases: species or system mixed lysate of K562, MV4-11, THP-1, NCI-H1155
[1] = molecular target: Receptor-interacting serine/threonine-protein kinase 2 ; RIPK2 ; O43353 (Homo sapiens, UniProt O43353); details: DIA-MS residual binding; binder
[2] = molecular target: Tyrosine-protein kinase Fgr ; FGR ; P09769 (Homo sapiens, UniProt P09769); details: binder
[3] = molecular target: Isoform 2 of Tyrosine-protein kinase Lyn ; LYN-2 ; P07948-2 (Homo sapiens, UniProt P07948); details: DIA-MS residual binding; binder
[4] = molecular target: Isoform 4 of Serine/threonine-protein kinase SIK3 ; SIK3-8 ; Q9Y2K2-8 (Homo sapiens, UniProt Q9Y2K2); details: DIA-MS residual binding; binder
[5] = molecular target: Tyrosine-protein kinase CSK ; CSK ; P41240 (Homo sapiens, UniProt P41240); details: binder
[6] = molecular target: Dual specificity testis-specific protein kinase 1 ; TESK1 ; Q15569 (Homo sapiens, UniProt Q15569); details: DIA-MS residual binding; binder
[7] = molecular target: Epithelial discoidin domain-containing receptor 1 ; DDR1 ; Q08345 (Homo sapiens, UniProt Q08345); details: binder
Chain of Epithelial discoidin domain-containing receptor 1 ; DDR1 ; Q08345 (Q08345 whole entry, the tested form may be a part): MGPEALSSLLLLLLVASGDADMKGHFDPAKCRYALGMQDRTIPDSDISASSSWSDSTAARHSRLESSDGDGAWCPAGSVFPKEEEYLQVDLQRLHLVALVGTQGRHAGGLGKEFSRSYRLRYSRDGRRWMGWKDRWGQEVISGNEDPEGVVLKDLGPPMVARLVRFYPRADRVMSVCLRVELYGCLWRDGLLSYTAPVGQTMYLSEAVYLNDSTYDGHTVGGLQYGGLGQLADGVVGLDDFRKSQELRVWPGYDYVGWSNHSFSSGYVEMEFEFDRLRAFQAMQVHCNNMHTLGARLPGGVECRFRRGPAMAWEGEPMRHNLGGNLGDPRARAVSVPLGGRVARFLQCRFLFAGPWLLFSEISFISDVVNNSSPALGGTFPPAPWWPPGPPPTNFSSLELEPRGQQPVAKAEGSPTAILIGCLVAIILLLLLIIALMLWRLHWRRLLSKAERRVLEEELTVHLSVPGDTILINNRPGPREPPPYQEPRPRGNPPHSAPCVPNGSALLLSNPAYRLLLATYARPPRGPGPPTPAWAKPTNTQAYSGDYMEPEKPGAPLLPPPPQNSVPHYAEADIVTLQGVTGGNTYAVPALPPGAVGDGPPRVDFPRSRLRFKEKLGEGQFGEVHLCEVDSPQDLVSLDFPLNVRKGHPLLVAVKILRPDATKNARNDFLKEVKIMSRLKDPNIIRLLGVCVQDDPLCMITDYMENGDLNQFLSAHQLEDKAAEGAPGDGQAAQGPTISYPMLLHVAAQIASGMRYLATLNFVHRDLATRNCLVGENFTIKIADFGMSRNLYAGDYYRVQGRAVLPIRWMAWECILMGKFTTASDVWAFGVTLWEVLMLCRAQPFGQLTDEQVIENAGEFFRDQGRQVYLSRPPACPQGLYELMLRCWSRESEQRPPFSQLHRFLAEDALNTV

Chain of Isoform 4 of Serine/threonine-protein kinase SIK3 ; SIK3-8 ; Q9Y2K2-8 (Q9Y2K2 whole entry, canonical isoform, one chain of several): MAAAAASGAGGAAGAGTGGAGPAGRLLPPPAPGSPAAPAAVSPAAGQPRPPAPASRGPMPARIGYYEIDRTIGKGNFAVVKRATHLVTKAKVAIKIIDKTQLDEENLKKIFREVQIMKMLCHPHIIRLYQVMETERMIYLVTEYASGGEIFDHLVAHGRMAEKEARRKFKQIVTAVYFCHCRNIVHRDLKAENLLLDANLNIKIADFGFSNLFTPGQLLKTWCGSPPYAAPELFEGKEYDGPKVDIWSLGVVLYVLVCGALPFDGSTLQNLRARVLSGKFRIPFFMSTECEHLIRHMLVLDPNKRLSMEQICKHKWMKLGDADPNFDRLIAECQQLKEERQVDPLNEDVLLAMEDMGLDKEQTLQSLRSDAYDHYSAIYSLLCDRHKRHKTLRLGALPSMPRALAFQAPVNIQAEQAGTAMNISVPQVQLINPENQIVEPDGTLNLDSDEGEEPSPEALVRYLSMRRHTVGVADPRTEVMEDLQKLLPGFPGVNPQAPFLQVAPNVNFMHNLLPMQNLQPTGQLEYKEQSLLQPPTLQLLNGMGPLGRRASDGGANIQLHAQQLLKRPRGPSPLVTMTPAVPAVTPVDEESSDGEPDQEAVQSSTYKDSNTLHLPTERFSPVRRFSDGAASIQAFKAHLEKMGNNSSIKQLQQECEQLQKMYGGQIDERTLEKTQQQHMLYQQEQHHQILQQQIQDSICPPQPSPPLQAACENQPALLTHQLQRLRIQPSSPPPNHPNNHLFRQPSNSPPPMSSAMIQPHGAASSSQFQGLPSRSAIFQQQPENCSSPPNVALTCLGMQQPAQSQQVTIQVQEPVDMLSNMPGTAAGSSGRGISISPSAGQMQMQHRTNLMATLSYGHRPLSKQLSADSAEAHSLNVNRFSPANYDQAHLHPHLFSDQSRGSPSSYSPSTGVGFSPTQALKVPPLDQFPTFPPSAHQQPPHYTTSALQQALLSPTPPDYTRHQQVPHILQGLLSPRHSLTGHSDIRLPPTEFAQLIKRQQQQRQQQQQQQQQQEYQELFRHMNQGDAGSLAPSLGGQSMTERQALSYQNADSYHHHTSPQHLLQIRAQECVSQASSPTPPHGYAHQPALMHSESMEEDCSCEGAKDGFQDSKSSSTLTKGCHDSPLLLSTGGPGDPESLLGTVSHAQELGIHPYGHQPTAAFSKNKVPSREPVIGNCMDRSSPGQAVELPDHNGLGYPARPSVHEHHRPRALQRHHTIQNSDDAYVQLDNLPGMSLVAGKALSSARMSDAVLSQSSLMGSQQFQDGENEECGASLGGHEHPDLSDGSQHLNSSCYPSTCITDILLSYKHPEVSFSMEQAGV
Chain of Isoform 2 of Tyrosine-protein kinase Lyn ; LYN-2 ; P07948-2 (P07948 whole entry, canonical isoform): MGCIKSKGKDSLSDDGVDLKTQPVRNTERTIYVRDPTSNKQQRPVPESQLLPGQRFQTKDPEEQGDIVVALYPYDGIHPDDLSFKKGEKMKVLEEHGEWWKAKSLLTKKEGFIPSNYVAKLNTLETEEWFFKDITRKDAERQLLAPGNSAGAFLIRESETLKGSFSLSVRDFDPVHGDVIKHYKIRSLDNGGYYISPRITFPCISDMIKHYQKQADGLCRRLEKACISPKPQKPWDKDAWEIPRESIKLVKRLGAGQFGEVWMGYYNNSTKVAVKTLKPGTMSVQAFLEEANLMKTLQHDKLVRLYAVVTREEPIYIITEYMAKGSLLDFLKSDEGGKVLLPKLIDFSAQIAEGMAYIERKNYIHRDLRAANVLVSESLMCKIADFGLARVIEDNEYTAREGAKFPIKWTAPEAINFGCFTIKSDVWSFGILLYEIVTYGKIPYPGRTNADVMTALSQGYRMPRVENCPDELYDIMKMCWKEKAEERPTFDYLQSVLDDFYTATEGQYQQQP
Chain of Receptor-interacting serine/threonine-protein kinase 2 ; RIPK2 ; O43353 (O43353 whole entry, one chain of several): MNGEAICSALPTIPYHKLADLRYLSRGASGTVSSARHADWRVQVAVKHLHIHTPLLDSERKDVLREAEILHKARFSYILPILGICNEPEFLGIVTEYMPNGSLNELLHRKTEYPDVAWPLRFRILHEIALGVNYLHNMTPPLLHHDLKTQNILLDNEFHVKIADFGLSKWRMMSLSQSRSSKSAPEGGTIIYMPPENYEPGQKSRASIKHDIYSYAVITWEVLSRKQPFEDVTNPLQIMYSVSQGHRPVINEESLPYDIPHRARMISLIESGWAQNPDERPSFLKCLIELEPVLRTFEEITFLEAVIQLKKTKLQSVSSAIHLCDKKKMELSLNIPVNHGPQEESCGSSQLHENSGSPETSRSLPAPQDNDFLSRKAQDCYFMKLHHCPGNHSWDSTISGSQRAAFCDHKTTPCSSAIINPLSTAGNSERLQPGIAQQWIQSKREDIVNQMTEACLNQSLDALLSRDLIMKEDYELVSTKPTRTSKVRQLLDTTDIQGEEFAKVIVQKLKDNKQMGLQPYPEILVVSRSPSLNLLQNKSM
Chain of Dual specificity testis-specific protein kinase 1 ; TESK1 ; Q15569 (Q15569 whole entry, the tested form may be a part): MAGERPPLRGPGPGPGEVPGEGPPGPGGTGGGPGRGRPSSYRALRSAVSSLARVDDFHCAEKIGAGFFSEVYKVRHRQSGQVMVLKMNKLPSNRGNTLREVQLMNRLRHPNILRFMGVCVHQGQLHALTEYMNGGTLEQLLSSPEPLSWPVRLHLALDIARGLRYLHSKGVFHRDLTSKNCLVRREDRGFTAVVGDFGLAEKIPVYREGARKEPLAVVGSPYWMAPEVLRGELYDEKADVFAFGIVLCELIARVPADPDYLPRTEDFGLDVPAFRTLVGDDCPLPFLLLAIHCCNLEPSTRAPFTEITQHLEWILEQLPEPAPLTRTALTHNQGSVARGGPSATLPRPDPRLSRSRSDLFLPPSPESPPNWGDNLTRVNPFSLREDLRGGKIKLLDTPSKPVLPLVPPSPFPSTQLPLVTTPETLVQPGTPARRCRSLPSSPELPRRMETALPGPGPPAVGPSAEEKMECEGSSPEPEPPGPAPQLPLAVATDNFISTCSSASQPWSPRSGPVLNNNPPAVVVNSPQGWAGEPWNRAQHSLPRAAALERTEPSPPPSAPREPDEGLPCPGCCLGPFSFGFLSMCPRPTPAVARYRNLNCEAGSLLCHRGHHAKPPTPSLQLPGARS
Chain of Tyrosine-protein kinase CSK ; CSK ; P41240 (P41240 whole entry): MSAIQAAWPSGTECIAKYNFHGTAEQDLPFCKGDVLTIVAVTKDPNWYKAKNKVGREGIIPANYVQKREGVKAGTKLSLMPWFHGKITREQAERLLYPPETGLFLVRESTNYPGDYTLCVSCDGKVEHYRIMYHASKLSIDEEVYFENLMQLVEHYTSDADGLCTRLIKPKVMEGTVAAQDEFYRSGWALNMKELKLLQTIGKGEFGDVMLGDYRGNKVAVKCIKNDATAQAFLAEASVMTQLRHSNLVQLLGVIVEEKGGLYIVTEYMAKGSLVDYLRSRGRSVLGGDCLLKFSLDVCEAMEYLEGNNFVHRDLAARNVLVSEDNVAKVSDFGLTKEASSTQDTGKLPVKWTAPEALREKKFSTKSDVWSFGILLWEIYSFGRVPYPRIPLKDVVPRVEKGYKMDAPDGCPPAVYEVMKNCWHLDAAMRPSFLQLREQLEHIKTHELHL
Chain of Tyrosine-protein kinase Fgr ; FGR ; P09769 (P09769 whole entry, canonical isoform): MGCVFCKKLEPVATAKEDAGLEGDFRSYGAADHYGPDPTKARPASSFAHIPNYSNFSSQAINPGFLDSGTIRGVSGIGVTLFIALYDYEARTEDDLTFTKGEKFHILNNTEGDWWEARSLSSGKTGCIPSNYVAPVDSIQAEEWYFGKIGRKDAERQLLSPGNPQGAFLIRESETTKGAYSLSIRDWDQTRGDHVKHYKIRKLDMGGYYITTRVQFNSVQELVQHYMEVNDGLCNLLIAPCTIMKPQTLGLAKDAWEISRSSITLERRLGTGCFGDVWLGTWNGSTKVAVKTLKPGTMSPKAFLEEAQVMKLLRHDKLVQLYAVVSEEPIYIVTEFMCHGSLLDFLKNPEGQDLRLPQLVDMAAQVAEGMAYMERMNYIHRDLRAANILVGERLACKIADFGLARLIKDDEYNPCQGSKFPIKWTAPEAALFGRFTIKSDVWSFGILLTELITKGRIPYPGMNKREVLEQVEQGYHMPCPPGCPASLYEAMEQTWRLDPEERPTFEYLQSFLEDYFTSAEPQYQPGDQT

Structure (SMILES): Cc1nc(Nc2ncc(C(=O)Nc3c(C)cccc3Cl)s2)cc(N2CCN(CCO)CC2)n1 [dasatinib]
- DIA-MS / % Intensity (30 µM/DMSO) [1]: 2.357%
- DIA-MS / % Intensity (30 µM/DMSO) [2]: 0.4999%
- DIA-MS / % Intensity (30 µM/DMSO) [3]: 1.98%
- DIA-MS / % Intensity (30 µM/DMSO) [4]: 10.64%
- DIA-MS / % Intensity (30 µM/DMSO) [5]: 0.9845%
- DIA-MS / % Intensity (30 µM/DMSO) [6]: 14.82%
- DIA-MS / % Intensity (30 µM/DMSO) [7]: 2.942%
